The record followed here is PMC9820303, “^αN-Acetyl β-Endorphin Is an Endogenous Ligand of σ1Rs That Regulates Mu-Opioid Receptor Signaling by Exchanging G Proteins for σ2Rs in σ1R Oligomers” (International Journal of Molecular Sciences, 2022).

Entries after “also recorded” stand apart in the source; their conditions may differ.

The test deals with T1, σ1R-BiP (Mus musculus, UniProt O55242).
T1 construct: The coding region of the full-length murine σ1R (AF004927); GST (N, cleaved yes); host or cells: E. coli BL21 (KRX) for σ1R
T1 sequence (O55242 whole entry): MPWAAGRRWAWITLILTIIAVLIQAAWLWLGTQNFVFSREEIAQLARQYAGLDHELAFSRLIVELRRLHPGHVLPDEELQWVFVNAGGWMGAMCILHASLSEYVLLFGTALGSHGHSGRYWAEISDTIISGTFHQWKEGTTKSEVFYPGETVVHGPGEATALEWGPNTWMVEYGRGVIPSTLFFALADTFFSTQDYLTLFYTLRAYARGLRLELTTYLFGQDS
Description: In vitro σ1R-BiP association of recombinant proteins (Western blot). It is filed as biochemical. Particulars: for effect on σ1R-BiP association: increasing concentrations, 30 min RT, vs control without ligand; for activity at σ1R-BiP against agonists / β-End 1–31: 1 nM β-End 1–31 with increasing competitor (Figure S10). As for the experimental part: Figure 7 Effect of β-End 1–31, ^αN-acetyl β-End 1–31 and their N-terminal derivatives on σ1R-σ2R, σ1R-NR1 C1 and σ1R-BiP associations. Amino acid sequence of β-End 1–31 showing derivatives 1–26 and 1–27. (A) HaloLink-attached σ2Rs were incubated for 30 min at RT in the presence of σ1Rs (100 nM) in 300 μL of 50 mM Tris-HCl (pH 7.4), 0.2% CHAPS, and 2.5 mM CaCl2. After removing the unbound σ1R proteins, the effects of increasing the peptide concentrations on σ1R-σ2R associations were studied. At the end of the incubation, protein complexes bound to HaloLink-σ2R were obtained by centrifugation, washed three times, solubilized in 2× Laemmli buffer containing β-mercaptoethanol, resolved by SDS-PAGE, and analyzed by Western blotting (for more details, see Section 4). This protocol was also used to assess the effect of ligands on (B) σ1R-NR1 C1 and (C) σ1R-BiP associations. Data were compared to that of the control, which was obtained in the absence of ligands. (A–C) Data are the mean ± SD, n = 3. (D) The β-End 1–31 structural models were predicted by Novafold (DNASTAR Lasergene protein v.17, Inc., Madison, WI, USA). Ribbon model: The 3D structure, charge distribution and hydrophobicity map of β-End 1–31 are shown. Positive charges are shown in red and negative charges in blue. Polar surfaces are shown in yellow, and nonpolar surfaces are shown in orange. Linear model: the opioid (1–5) and flexible region (8–11) sequences are shown in green and orange, respectively, and the amphiphilic helix (15–25) is shown in pink.
The recombinant σ1R (100 nM) was incubated either with Haloprotein (negative control) or together with the immobilized σ2R, NR1 C0-C1-C2 or BiP proteins in 300 µL of a buffer containing 50 mM Tris-HCl (pH 7.4) and 0.2% CHAPS in the presence of 2.5 mM CaCl2 for 30 min at RT. After removal of the unbound σ1R, the agarose-attached complexes were incubated for 30 min with rotation at RT in the presence of increasing concentrations of the ligands in a final reaction volume of 300 µL [50 mM Tris-HCl (pH 7.4), 2.5 mM CaCl2 and 0.2% CHAPS]. Ligands were usually dissolved in aqueous solutions; however, when an organic solvent such as DMSO was required to incorporate, e.g., pregnenolone sulfate, the solvent remained below 1% in the assay buffer. Agarose pellets containing the bound proteins were obtained by centrifugation, washed and resuspended thrice in the presence of 2.5 mM CaCl2, solubilized in 2× Laemmli buffer plus β-mercaptoethanol, and analyzed by Western blotting.
Because all the assays were performed with recombinant proteins, the immune signals provided a single band of the expected size, which was used for the subsequent densitometry analysis. Accordingly, no other regions of the blots provided information and were routinely excluded from the analysis.
Figure S8. Effect of the physiological and nonphysiological sequences of β-End 1-31 and classical σ1R ligands on BiP-σ1R, σ2R-σ1R and NR1 C1-σ1R associations . Agarose-BiP was loaded with σ1Rs, and after the unbound σ1Rs were removed, the agarose-BiP-σ1R complexes were incubated in the absence (control) and presence of increasing concentrations of (A) β-End 1-31 C-terminal physiological derivatives and (B) classical σ1R ligands. C) Agarose-σ2R loaded with σ1Rs was incubated in the absence (control) and with nonphysiological derivatives of β-End 1-31. D) Agarose-NR1 C1 loaded with σ1Rs were incubated in the absence (control) and with nonphysiological derivatives of β-End 1-31. A-D) The σ1Rs that remained attached to the agarose complexes were evaluated by Western blotting. The […]
(1 picture or pasted object on this page, not shown here)
Figure S10. Effect of σ1R agonist/antagonist ligands on σ1R-BiP associations. Agarose-attached BiP proteins were incubated for 30 min in the presence of recombinant σ1R (100 nM) proteins in 300 μL of 50 mM Tris-HCl (pH 7.4), 0.2% CHAPS, and 2.5 mM CaCl2. After the unbound σ1R proteins were […]

As for `Br.Br.CN(C)CCN(C)CCc1ccc(Cl)c(Cl)c1` [BD1047, N′-[2-(3,4-dichlorophenyl)ethyl]-N,N,N′-trimethylethane-1,2-diamine;dihydrobromide, reference compound], the “effect on σ1R-BiP association” value is reported as “did the opposite”.
For `COC(=O)[C@]1(c2ccc(C)cc2)C[C@@H]1CN1CCC(O)(c2ccccc2)CC1` [PPCC, (1R,2S/1S,2R)-2-[4-hydroxy-4-phenylpiperidin-1-yl)methyl]-1-(4-methylphenyl) cyclopropanecarboxylate, reference compound], the “effect on σ1R-BiP association” value is “impaired σ1R associations with σ2R and BiP”.
On the same count and under the same terms, then `Cl.O=C(OCCN1CCOCC1)C1(c2ccccc2)CCCCC1` [PRE084, 2-(4-morpholinethyl)-1-phenylcyclohexanecarboxylate hydrochloride, reference compound], with “impaired σ1R associations with σ2R and BiP”; and `Cc1cc(OCCN2CCOCC2)nn1-c1ccc2ccccc2c1` [S1RA], with “did the opposite”.
Regarding “KKGE [β-End 28–31, C-terminal tetrapeptide of β-End 1–31]”, the “activity at σ1R-BiP against agonists / β-End 1–31” value is recorded as “neither exhibited activity at σ1R-BiP nor reduced the effect of β-End 1–31” and the “effect on σ1R-BiP association” value is on record as “weak direct effect on σ1R-BiP complexes”.
Regarding “YKKGE [β-End 27–31, C-terminal pentapeptide of β-End 1–31]”, the “effect on σ1R-BiP association” value is reported as “increased”.
With “^αN-acetyl β-End 1–31: β-End 1–31 acetylated at N terminal Y1, α position”, the “activity at σ1R-BiP against agonists / β-End 1–31” value is listed as “neither exhibited activity at σ1R-BiP nor reduced the effect of β-End 1–31” and the “effect on σ1R-BiP association” value was “weak at σ1R-BiP associations; also recorded: inactive”.
For the compound “β-End 1–26: β-End 1–31 derivative without 5 C-terminal residues (YGGFMTSEKSQTPLVTLFKNAIIKNA; Beta-endorphin; UniProt P01189 237-262, looked up, fragment)”, the “effect on σ1R-BiP association” value is given as “disrupted these complexes with potencies in the pM/nM range”.
As for “β-End 1–27: β-End 1–31 derivative without 4 C-terminal residues (YGGFMTSEKSQTPLVTLFKNAIIKNAY; Beta-endorphin; UniProt P01189 237-263, looked up, fragment)”, the “effect on σ1R-BiP association” value is recorded as “disrupted these complexes with potencies in the pM/nM range”.
